Test results as given in ChEMBL document CHEMBL4823275, “Structure-based molecular hybridization design of Keap1-Nrf2 inhibitors as novel protective agents of acute lung injury” (Eur J Med Chem, 2021).
Calls of active or inactive are those of the source. The calls are words filed in the database; no cut-off is given here.

How the values were obtained:
Keap1/Nrf2 = Keap1/Nrf2 (Homo sapiens, UniProt Q14145); assay: Inhibition of Keap1-Nrf2 (unknown origin) interaction measured after 60 mins by Fluorescence polarization assay; assay type: protein assay
Sequence of Keap1/Nrf2 (Q16236 whole entry): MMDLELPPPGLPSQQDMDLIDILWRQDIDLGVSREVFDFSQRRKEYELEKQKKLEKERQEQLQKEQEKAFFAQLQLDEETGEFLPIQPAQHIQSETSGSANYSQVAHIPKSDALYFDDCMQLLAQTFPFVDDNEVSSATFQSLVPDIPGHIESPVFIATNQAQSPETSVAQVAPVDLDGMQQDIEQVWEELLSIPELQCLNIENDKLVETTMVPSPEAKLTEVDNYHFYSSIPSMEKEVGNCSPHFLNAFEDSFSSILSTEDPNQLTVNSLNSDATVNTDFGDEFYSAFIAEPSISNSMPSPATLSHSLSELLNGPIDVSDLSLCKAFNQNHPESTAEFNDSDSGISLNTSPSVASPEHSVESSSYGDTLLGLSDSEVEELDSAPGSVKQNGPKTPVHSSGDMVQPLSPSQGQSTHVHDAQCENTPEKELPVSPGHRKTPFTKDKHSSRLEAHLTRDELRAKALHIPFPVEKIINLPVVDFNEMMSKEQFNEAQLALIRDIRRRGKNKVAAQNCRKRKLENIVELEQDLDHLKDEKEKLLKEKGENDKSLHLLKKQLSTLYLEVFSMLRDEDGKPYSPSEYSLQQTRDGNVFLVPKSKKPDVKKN
Sequence of Keap1/Nrf2 (Q14145 whole entry): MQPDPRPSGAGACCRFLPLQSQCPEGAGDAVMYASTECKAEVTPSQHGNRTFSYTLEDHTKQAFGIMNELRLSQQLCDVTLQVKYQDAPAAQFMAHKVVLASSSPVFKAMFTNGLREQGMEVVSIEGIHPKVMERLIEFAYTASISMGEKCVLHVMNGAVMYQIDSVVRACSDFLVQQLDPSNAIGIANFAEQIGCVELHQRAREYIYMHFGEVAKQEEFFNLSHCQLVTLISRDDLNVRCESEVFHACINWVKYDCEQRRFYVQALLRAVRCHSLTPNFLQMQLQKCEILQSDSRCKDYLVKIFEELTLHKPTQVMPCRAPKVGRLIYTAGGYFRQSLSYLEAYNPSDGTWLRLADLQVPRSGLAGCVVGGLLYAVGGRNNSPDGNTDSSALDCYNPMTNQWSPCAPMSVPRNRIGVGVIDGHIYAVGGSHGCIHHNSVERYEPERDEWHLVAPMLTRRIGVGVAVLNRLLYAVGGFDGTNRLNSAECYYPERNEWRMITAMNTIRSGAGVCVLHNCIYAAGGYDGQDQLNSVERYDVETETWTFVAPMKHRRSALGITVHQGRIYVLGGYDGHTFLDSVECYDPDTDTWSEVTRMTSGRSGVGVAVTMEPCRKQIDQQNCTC

[1] = Cytotoxicity against mouse peritoneal macrophages assessed as reduction in cell viability measured after 24 hrs by CCK8 assay; assay type: cell-based, Peritoneal macrophage
Peritoneal macrophage [2] = assay: Antiinflammatory activity against mouse peritoneal macrophages assessed as inhibition of LPS-stimulated ROS production at 10 uM incubated for 6 hrs by DCFH-DA staining based fluorescence analysis; assay type: functional, cell-based
Peritoneal macrophage [3] = assay: Antiinflammatory activity against mouse peritoneal macrophages assessed as inhibition of LPS-induced NO production at 10 uM measured after 24 hrs by Griess assay; assay type: functional, cell-based
Peritoneal macrophage [4] = assay: Antiinflammatory activity against mouse peritoneal macrophages assessed as reduction in LPS-induced TNFalpha production at 10 uM measured after 24 hrs by ELISA; assay type: functional, cell-based
[5] = biological target: T1, Kelch-like ECH-associated protein 1/Nuclear factor erythroid 2-related factor 2 (Mus musculus) (UniProt Q60795+Q9Z2X8); assay: Inhibition of Keap1-Nrf2 interaction in mouse peritoneal macrophages assessed as increase in nuclear translocation of Nrf2 by measuring increase in nuclear Nrf2 level at 10 uM measured after 3 to 6 hrs by Western blot analysis; assay type: subcellular; conditions: Peritoneal macrophage, Nucleus, time 3-6 hrs
T1 sequence (Q60795 whole entry, looked up): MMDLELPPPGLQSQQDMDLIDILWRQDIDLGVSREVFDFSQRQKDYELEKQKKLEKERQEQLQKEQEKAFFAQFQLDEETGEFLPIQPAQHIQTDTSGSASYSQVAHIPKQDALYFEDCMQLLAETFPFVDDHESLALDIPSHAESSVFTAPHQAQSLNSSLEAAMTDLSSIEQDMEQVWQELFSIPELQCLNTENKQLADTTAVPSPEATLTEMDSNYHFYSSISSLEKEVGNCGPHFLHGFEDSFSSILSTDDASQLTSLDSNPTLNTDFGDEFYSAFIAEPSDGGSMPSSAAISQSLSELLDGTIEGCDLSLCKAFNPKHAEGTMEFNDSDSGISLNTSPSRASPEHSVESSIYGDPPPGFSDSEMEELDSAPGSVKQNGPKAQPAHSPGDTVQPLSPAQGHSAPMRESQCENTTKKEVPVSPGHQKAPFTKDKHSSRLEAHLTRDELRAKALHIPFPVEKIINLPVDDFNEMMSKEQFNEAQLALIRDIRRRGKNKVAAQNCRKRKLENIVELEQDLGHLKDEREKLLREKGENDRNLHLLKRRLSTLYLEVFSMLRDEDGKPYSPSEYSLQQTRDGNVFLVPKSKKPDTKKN
T1 sequence (Q9Z2X8 whole entry, looked up): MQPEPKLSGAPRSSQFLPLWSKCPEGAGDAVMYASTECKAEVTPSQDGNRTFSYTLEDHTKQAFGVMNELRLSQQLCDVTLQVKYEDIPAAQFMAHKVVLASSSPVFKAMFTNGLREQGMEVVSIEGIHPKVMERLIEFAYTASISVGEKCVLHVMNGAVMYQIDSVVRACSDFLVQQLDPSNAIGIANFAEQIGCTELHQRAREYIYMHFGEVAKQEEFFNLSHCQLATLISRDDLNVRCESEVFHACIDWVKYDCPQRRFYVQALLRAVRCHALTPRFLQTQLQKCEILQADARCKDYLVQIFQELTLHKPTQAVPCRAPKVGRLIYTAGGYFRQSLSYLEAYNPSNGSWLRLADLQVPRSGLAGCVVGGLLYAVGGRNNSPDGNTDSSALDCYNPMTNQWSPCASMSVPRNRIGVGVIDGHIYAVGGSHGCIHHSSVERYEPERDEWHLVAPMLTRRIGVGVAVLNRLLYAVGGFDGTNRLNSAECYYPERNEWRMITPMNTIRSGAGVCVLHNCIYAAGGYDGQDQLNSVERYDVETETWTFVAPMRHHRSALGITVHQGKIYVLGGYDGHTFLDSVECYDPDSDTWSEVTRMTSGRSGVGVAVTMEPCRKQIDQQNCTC

[6] = biological target: T1, Kelch-like ECH-associated protein 1/Nuclear factor erythroid 2-related factor 2 (Mus musculus); assay: Inhibition of Keap1-Nrf2 interaction in mouse peritoneal macrophages assessed as increase in nuclear translocation of Nrf2 by measuring decrease in cytosolic Nrf2 level at 10 uM measured after 3 to 6 hrs by Western blot analysis; assay type: subcellular; conditions: Peritoneal macrophage, Cytosol, time 3-6 hrs
[7] = biological target: T1, Kelch-like ECH-associated protein 1/Nuclear factor erythroid 2-related factor 2 (Mus musculus); assay: Inhibition of Keap1-Nrf2 interaction in mouse peritoneal macrophages assessed as upregulation of HO-1 protein expression at 10 uM by Western blot analysis; assay type: tissue-based; conditions: Peritoneal macrophage, time 1-6 hrs, TDE = time-dependent effect
[8] = biological target: T1, Kelch-like ECH-associated protein 1/Nuclear factor erythroid 2-related factor 2 (Mus musculus); assay: Inhibition of Keap1-Nrf2 interaction in mouse peritoneal macrophages assessed as upregulation of NQO1 protein expression at 10 uM by Western blot analysis; assay type: tissue-based; conditions: Peritoneal macrophage, time 1-6 hrs, TDE = time-dependent effect
Mus musculus [9] = assay: Anti-inflammatory activity against LPS-induced acute lung injury C57BL/6 mouse model assessed as reduction in LPS-induced TNF-alpha secretion in BALF at 5 to 20 mg/kg, ip treated 0.5 hrs before LPS stimulation and measured after 6 hrs by ELISA; assay type: functional, organism-based; conditions: dose 5-20 mg/kg, time 6.5 hrs
Mus musculus [10] = assay: Anti-inflammatory activity against LPS-induced acute lung injury C57BL/6 mouse model assessed as reduction in LPS-induced IL-1 beta secretion in BALF at 5 to 20 mg/kg, ip treated 0.5 hrs before LPS stimulation and measured after 6 hrs by ELISA; assay type: functional, organism-based; conditions: dose 5-20 mg/kg, time 6.5 hrs
Mus musculus [11] = assay: Anti-inflammatory activity against LPS-induced acute lung injury C57BL/6 mouse model assessed as reduction in LPS-induced TNF-alpha mRNA expression in lungs at 5 to 20 mg/kg, ip treated 0.5 hrs before LPS stimulation and measured after 6 hrs by RT-PCR analysis; assay type: functional, organism-based; conditions: dose 5-20 mg/kg, time 6.5 hrs
Mus musculus [12] = assay: Anti-inflammatory activity against LPS-induced acute lung injury C57BL/6 mouse model assessed as reduction in LPS-induced IL-1 beta mRNA expression in lungs at 5 to 20 mg/kg, ip treated 0.5 hrs before LPS stimulation and measured after 6 hrs by RT-PCR analysis; assay type: functional, organism-based; conditions: dose 5-20 mg/kg, time 6.5 hrs
Mus musculus [13] = assay: Anti-inflammatory activity against LPS-induced acute lung injury C57BL/6 mouse model assessed as reduction in LPS-induced IL-6 mRNA expression in lungs at 5 to 20 mg/kg, ip treated 0.5 hrs before LPS stimulation and measured after 6 hrs by RT-PCR analysis; assay type: functional, organism-based; conditions: dose 5-20 mg/kg, time 6.5 hrs
Mus musculus [14] = assay: (§1) In vivo inhibition of Keap1-Nrf2 interaction in LPS-induced acute lung injury C57BL/6 mouse model assessed as increase in Nrf2 nuclear translocation in lungs by measuring increase in nuclear Nrf2 level treated intraperitoneally at 0.5 hrs before LPS stimulation and measured after 6 hrs by western blot analysis; assay type: functional, organism-based; conditions: dose 5-20 mg/kg, time 6.5 hrs
Mus musculus [15] = assay: as §1, with “measuring decrease” for “measuring increase”, “in cytosolic” for “in nuclear”; assay type: functional, organism-based; conditions: dose 5-20 mg/kg, time 6.5 hrs
Mus musculus [16] = assay: (§2) Antiinflammatory activity against LPS-induced acute lung injury C57BL/6 mouse model assessed as intact alveolar structure with reduced inflammatory cells infiltration in lungs at 5 to 20 mg/kg, ip treated 0.5 hrs before LPS stimulation and measured after 6 hrs by hematoxylin and eosin staining based microscopic analysis; assay type: functional, organism-based; conditions: dose 5-20 mg/kg, time 6.5 hrs
Mus musculus [17] = assay: as §2, with “mild” for “intact”, “thickening” for “structure”, “less bleeding points/congestion” for “reduced inflammatory cells infiltration”; assay type: functional, organism-based; conditions: dose 5-20 mg/kg, time 6.5 hrs

Row | SMILES | Kd (Keap1/Nrf2) | CC50 at 24 h [1] | also measured
1 | COc1ccc(S(=O)(=O)N(CC(N)=O)c2ccc(N(CC(N)=O)S(=O)(=O)c3ccc(S(=O)(=O)CCCCCN=C=S)cc3)c3ccccc23)cc1 | > 10 µM | > 10 µM | 
2 | COc1ccc(S(=O)(=O)N(CC(N)=O)c2ccc(N(CC(N)=O)S(=O)(=O)c3ccc(S(=O)(=O)CCN=C=S)cc3)c3ccccc23)cc1 | 0.658 µM | > 10 µM | Activity (Peritoneal macrophage [2]): Active; Activity (Peritoneal macrophage [3]): Active; Activity (Peritoneal macrophage [4]): Active
3 | C[S+]([O-])CCCCN=C=S (centres undefined) [SULFORAPHANE] |  | > 10 µM | Activity (Peritoneal macrophage [2]): Active; Activity (Peritoneal macrophage [3]): Active; Activity (Peritoneal macrophage [4]): Active; inhibition [5]: Active; inhibition [6]: Active; inhibition [7]: Tde; inhibition [8]: Tde
4 | COc1ccc(S(=O)(=O)N(CC(N)=O)c2ccc(N(CC(N)=O)S(=O)(=O)c3ccc(S(=O)(=O)CCOCCOCCOCCN=C=S)cc3)c3ccccc23)cc1 | > 10 µM | > 10 µM | 
5 | COc1ccc(S(=O)(=O)N(CC(N)=O)c2ccc(N(CC(N)=O)S(=O)(=O)c3ccc(S(=O)(=O)CCOCCOCCN=C=S)cc3)c3ccccc23)cc1 | 1.22 µM | > 10 µM | 
6 | COc1ccc(S(=O)(=O)N(CC(N)=O)c2ccc(N(CC(N)=O)S(=O)(=O)c3ccc(SCCCCN=C=S)cc3)c3ccccc23)cc1 | > 10 µM | > 10 µM | 
7 | COc1ccc(S(=O)(=O)N(CC(N)=O)c2ccc(N(CC(N)=O)S(=O)(=O)c3ccc(SCCCCCN=C=S)cc3)c3ccccc23)cc1 | > 10 µM | > 10 µM | 
8 | COc1ccc(S(=O)(=O)N(CC(N)=O)c2ccc(N(CC(N)=O)S(=O)(=O)c3ccc(S(=O)(=O)CCCN=C=S)cc3)c3ccccc23)cc1 | > 10 µM | > 10 µM | 
9 | COc1ccc(S(=O)(=O)N(CC(N)=O)c2ccc(N(CC(N)=O)S(=O)(=O)c3ccc([S+]([O-])CCOCCN=C=S)cc3)c3ccccc23)cc1 (centres undefined) | 3.08 µM | > 10 µM | 
10 | COc1ccc(S(=O)(=O)N(CC(N)=O)c2ccc(N(CC(N)=O)S(=O)(=O)c3ccc([S+]([O-])CCCCN=C=S)cc3)c3ccccc23)cc1 (centres undefined) | 1.27 µM | > 10 µM | 
11 | COc1ccc(S(=O)(=O)N(CC(N)=O)c2ccc(N(CC(N)=O)S(=O)(=O)c3ccc([S+]([O-])CCCCCN=C=S)cc3)c3ccccc23)cc1 (centres undefined) | 1.83 µM | > 10 µM | 
12 | COc1ccc(S(=O)(=O)N(CC(N)=O)c2ccc(N(CC(N)=O)S(=O)(=O)c3ccc([S+]([O-])CCOCCOCCOCCN=C=S)cc3)c3ccccc23)cc1 (centres undefined) | > 10 µM | > 10 µM | 
13 | COc1ccc(S(=O)(=O)N(CC(N)=O)c2ccc(N(CC(N)=O)S(=O)(=O)c3ccc(SCCN=C=S)cc3)c3ccccc23)cc1 | 3.5 µM | > 10 µM | 
14 | COc1ccc(S(=O)(=O)N(CC(N)=O)c2ccc(N(CC(N)=O)S(=O)(=O)c3ccc([S+]([O-])CCOCCOCCN=C=S)cc3)c3ccccc23)cc1 (centres undefined) | 1.09 µM | > 10 µM | 
15 | COc1ccc(S(=O)(=O)N(CC(N)=O)c2ccc(N(CC(N)=O)S(=O)(=O)c3ccc([S+]([O-])CCCN=C=S)cc3)c3ccccc23)cc1 (centres undefined) | 0.455 µM | > 10 µM | Activity (Peritoneal macrophage [2]): Active; Activity (Peritoneal macrophage [3]): Active; Activity (Peritoneal macrophage [4]): Active; inhibition [5]: Active; inhibition [6]: Active; inhibition [7]: Tde; inhibition [8]: Tde; Activity (Mus musculus [9]): Active; Activity (Mus musculus [10]): Active; Activity (Mus musculus [11]): Active; Activity (Mus musculus [12]): Active; Activity (Mus musculus [13]): Active; inhibition (Mus musculus [14]): Dose-Dependent Effect; inhibition (Mus musculus [15]): Dose-Dependent Effect; Activity (Mus musculus [16]): Active; Activity (Mus musculus [17]): Active
16 | COc1ccc(S(=O)(=O)N(CC(N)=O)c2ccc(N(CC(N)=O)S(=O)(=O)c3ccc(SCCOCCN=C=S)cc3)c3ccccc23)cc1 | 8.51 µM | > 10 µM | 
17 | COc1ccc(S(=O)(=O)N(CC(N)=O)c2ccc(N(CC(N)=O)S(=O)(=O)c3ccc(S(=O)(=O)CCOCCN=C=S)cc3)c3ccccc23)cc1 | 2.3 µM | > 10 µM | 
18 | COc1ccc(S(=O)(=O)N(CC(N)=O)c2ccc(N(CC(N)=O)S(=O)(=O)c3ccc([S+]([O-])CCN=C=S)cc3)c3ccccc23)cc1 (centres undefined) | 1.49 µM | > 10 µM | 
19 | COc1ccc(S(=O)(=O)N(CC(N)=O)c2ccc(N(CC(N)=O)S(=O)(=O)c3ccc(S(=O)(=O)CCCCN=C=S)cc3)c3ccccc23)cc1 | > 10 µM | > 10 µM | 
20 | COc1ccc(S(=O)(=O)N(CC(N)=O)c2ccc(N(CC(N)=O)S(=O)(=O)c3ccc(SCCOCCOCCOCCN=C=S)cc3)c3ccccc23)cc1 | > 10 µM | > 10 µM | 
21 | COc1ccc(S(=O)(=O)N(CC(N)=O)c2ccc(N(CC(N)=O)S(=O)(=O)c3ccc(N=C=S)cc3)c3ccccc23)cc1 | 0.106 µM | > 10 µM | Activity (Peritoneal macrophage [2]): Active; Activity (Peritoneal macrophage [3]): Active; Activity (Peritoneal macrophage [4]): Active
22 | COc1ccc(S(=O)(=O)N(CC(N)=O)c2ccc(N(CC(N)=O)S(=O)(=O)c3ccc(SCCOCCOCCN=C=S)cc3)c3ccccc23)cc1 | > 10 µM | > 10 µM | 
23 | COc1ccc(S(=O)(=O)N(CC(N)=O)c2ccc(N(CC(N)=O)S(=O)(=O)c3ccc(SCCCN=C=S)cc3)c3ccccc23)cc1 | > 10 µM | > 10 µM | 
